Results reported in article PMC10882719 (Frontiers in Neuroscience, 2024).
Like-named read-outs stand apart in the source and are kept apart here.

Legend:
Type in all cases: cell-based
168 GPCRs [1] = molecular target: T1, 168 GPCRs (Homo sapiens, UniProt P25090)
T1 construct: host or cells: PathHunter cell lines
T1 sequence (P25090 1-351): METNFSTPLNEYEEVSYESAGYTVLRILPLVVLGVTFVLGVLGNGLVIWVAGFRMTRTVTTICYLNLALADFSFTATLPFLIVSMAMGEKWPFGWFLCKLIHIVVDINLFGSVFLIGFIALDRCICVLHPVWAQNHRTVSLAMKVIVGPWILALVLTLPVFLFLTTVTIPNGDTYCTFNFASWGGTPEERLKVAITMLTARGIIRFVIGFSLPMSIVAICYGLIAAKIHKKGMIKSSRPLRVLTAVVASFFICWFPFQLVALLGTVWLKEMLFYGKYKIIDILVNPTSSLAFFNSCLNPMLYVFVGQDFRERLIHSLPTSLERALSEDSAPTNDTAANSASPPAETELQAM

168 GPCRs [2] = molecular target: T2, 168 GPCRs (Homo sapiens, UniProt P30556)
T2 construct: host or cells: PathHunter cell lines
T2 sequence (P30556 1-359): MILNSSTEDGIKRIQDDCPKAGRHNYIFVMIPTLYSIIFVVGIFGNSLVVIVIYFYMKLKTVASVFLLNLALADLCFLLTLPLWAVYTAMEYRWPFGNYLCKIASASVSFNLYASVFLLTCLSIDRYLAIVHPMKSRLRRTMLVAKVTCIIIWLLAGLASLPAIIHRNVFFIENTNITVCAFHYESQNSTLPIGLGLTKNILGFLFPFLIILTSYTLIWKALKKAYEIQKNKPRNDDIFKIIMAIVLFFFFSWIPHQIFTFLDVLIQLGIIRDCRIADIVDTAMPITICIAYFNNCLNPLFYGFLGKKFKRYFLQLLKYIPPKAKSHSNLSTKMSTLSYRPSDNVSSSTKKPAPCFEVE

168 GPCRs [3] = molecular target: T3, 168 GPCRs (Homo sapiens, UniProt P47901); details: AVPR1B
T3 construct: host or cells: PathHunter cell lines
T3 sequence (P47901 1-424): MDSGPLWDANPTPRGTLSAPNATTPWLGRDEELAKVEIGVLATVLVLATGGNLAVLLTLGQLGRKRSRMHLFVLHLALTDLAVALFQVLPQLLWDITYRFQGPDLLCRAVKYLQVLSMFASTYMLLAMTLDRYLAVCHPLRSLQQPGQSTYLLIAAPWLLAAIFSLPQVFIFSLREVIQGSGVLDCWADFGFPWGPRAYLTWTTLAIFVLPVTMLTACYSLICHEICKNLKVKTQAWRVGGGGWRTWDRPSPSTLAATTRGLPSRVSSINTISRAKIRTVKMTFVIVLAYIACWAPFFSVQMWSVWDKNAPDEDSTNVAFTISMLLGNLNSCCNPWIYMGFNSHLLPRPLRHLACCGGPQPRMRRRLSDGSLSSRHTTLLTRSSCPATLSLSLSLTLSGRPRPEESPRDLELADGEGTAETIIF

168 GPCRs [4] = molecular target: T4, 168 GPCRs (Homo sapiens, UniProt Q96G91); details: P2RY11
T4 construct: host or cells: PathHunter cell lines
T4 sequence (Q96G91 1-374): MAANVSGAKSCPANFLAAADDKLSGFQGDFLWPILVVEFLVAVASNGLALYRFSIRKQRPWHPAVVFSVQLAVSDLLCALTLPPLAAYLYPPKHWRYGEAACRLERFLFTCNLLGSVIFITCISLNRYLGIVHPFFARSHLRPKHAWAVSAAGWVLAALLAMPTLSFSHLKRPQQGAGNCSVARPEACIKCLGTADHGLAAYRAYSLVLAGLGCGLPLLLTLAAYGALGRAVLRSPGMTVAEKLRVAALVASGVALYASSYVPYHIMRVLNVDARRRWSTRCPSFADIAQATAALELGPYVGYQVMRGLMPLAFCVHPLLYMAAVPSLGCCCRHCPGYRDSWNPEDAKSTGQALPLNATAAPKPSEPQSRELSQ

168 GPCRs [5] = molecular target: T5, 168 GPCRs (Homo sapiens, UniProt Q9Y5N1)
T5 construct: host or cells: PathHunter cell lines
T5 sequence (Q9Y5N1 whole entry): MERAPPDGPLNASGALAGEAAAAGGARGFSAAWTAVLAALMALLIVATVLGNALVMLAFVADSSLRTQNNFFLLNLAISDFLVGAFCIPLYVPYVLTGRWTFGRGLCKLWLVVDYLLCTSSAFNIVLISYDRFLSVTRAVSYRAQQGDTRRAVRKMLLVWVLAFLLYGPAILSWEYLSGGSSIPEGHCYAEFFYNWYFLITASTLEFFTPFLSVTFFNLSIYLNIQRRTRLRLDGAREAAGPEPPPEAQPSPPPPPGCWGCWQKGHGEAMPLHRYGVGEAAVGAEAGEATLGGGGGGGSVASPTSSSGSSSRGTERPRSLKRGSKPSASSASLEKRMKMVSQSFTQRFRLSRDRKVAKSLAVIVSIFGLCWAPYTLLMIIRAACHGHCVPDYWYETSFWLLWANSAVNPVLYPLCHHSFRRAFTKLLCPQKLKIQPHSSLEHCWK

Structure (SMILES)	% Agonist Activity (168 GPCRs [1]; FPRL1, 1 uM)	% Antagonist Activity (168 GPCRs [1]; FPRL1, 1 uM)	% Agonist Activity (168 GPCRs [1]; FPRL1, 10 uM)	% Antagonist Activity (168 GPCRs [1]; FPRL1, 10 uM)	% Agonist Activity (168 GPCRs [2]; AGTR1, 1 uM)	% Antagonist Activity (168 GPCRs [2]; AGTR1, 1 uM)	% Agonist Activity (168 GPCRs [2]; AGTR1, 10 uM)	% Antagonist Activity (168 GPCRs [2]; AGTR1, 10 uM)	% Agonist Activity (168 GPCRs [3]; 1 uM)	% Antagonist Activity (168 GPCRs [3]; 1 uM)	% Agonist Activity (168 GPCRs [3]; 10 uM)	% Antagonist Activity (168 GPCRs [3]; 10 uM)	% Agonist Activity (168 GPCRs [4]; Conc 1 uM)	% Antagonist Activity (168 GPCRs [4]; Conc 1 uM)	% Agonist Activity (168 GPCRs [4]; Conc 10 uM)	% Antagonist Activity (168 GPCRs [4]; Conc 10 uM)	% Agonist Activity (168 GPCRs [5]; HRH3, 1 uM)	% Antagonist Activity (168 GPCRs [5]; HRH3, 1 uM)	% Agonist Activity (168 GPCRs [5]; HRH3, 10 uM)	% Antagonist Activity (168 GPCRs [5]; HRH3, 10 uM)
CNC(C)Cc1ccc2c(c1)OCO2 (stereo not shown) [MDMA, 3,4-Methylenedioxy methamphetamine, reference compound]	-0.1%	14.8%	-0.1%	16.7%	3.5%	-17.7%	3.2%	-14.5%	-1%	8.1%	-1.8%	0.8%	0.3%	17.9%	0.7%	9%	-3.1%	6.2%	-2.6%	22.6%
CNC(C)C(=O)c1ccc2c(c1)OCO2 (stereo not shown) [methylone]	-0.5%	12.3%	0.1%	3.9%	-2.8%	3.3%	-1%	-1.4%	-1.2%	9.8%	-1.1%	3.5%	0.5%	2.7%	-0.3%	6.6%	-3.4%	9.5%	-3.7%	5.8%
